Results on 6 compounds are retold here after patent US4677107A, “Anti-peptic ulcer agent” (Dainippon Pharmaceutical Co., Ltd., priority 1983, dated 1987).

Structures can show the parent of a compound that is named as a salt. Where two headings read alike, the source gives them in different places.

The conditions of data set [1]: U.S. Pat. No. 4,237,135 and U.K. Pat. No. 2,017,698; cited from earlier work.
The conditions of data set [2]: U.S. Pat. No. 3,542,785 and 3,668,207; cited from earlier work.
For data set [3] the following is noted: U.S. Pat. No. 3,542,785 and 3,668,207; cited from earlier work. This is another data set of the same source.
For data set [4], the system named is ulceration induced by exposure to stress (restraint and water immersion). Nature of the data set: Effect on the ulceration induced by exposure to stress (restraint and water immersion). To be noted: for ED50: Rattus norvegicus, po, 30 minutes before immersion, rats, read-out: ED50 (dose required for 50% inhibition of the ulcer index). It is filed as in vivo, male Wistar strain rats. The protocol:
[I] Effect on the ulceration induced by exposure to stress (restraint and water immersion): Male Wistar strain rats (weighing, about 200 g) were placed in a stress cage which served to immobilize the animals therein and then immersed in a water bath of 23° C. to the height of xiphoid of the animals according to the method of Takagi et al. [cf. Takagi, K. and Okabe, S., Japan. J. Pharmacol., 18, 9 (1968)]. After 20 hours, the animals were sacrificed and the stomach was removed. The stomach was inflated with 13 ml of saline and placed in 5% formalin solution for 5 minutes. After washing with saline, the stomach was cut open along the greater curvature and the length (mm) of each lesion in the glandular portion was measured using a dissecting microscope (×12). The sum of the length (mm) of each lesions in a stomach was indicated as an ulcer index. In case of reference experiment using butylscopolamine bromide, a photograph of the mucosal surface of stomach was taken after the stomach was treated in the same manner as described above. The photograph was magnified by nine times, and the sum of the area (mm^2) of each lesions in a stomach was indicated as an ulcer index. The ulcer index in drug treated groups was compared with that in control group, and thereby, inhibitory percentage was calculated and then ED50 value, i.e., the dose required for 50% inhibition of the ulcer index, was determined by the usual graphic method. Drugs to be tested were suspended in 0.5% tragacanth solution and administered orally 30 minutes before the immersion. In the control group, a vehicle (0.5% tragacanth solution) was administered.

The subject of data set [5] is ulceration induced by pylorus-ligation. Nature of the data set: Effect on the ulceration induced by pylorus-ligation in rats. It is filed as in vivo, male Wistar strain rats. To be noted: for ED50: Rattus norvegicus, po, 30 minutes before ligation, rats, 18 hours, ulcer index 0 to 5, read-out: ED50 (dose required for 50% inhibition of ulcer index). The protocol:
[II] Effect on the ulceration induced by pylorus-ligation in rats: Male Wistar strain rats (weighing about 190 g) were fasted for 48 hours before experiment. The pylorus of each rat was ligated under ether anaesthesia according to the method of Shay et al. [cf. Shay, H., et al., Gastroenterology, 5, 43-61 (1945)]. Each of the animals was then allowed to stand abstained from food and water in a cage. After 18 hours, the animals were sacrificed under ether anaesthesia, and the stomachs were removed and cut open along the greater curvature. […] 4: marked ulcers more than two 5: perforated ulcer The ulcer index in drug treated groups was compared to that in the control group, and thereby, the inhibitory percentage was calculated and then ED50, i.e. the dose required for 50% inhibition of ulcer index, was determined by the usual graphic method. Drugs to be tested were suspended in 0.5% tragacanth solution and administered 30 minutes before the ligation. In the control group, a vehicle (0.5% tragacanth solution) was administered.

The test system of a further data set is gastric secretion. The data set is described as follows: Effect on gastric secretion in rats (pylorus ligation, total acid content). The class given is in vivo, male Wistar strain rats. To be noted: for ED50: Rattus norvegicus, po, 30 minutes before ligation, rats, 4 hours after ligation, read-out: ED50 (dose required for 50% reduction of acid content). As for the experimental part: [III] Effect on gastric secretion in rats: Male Wistar strain rats (weighing, about 200 g) were fasted for 24 hours before experiment. The pylorus was ligated under ether anaesthesia. Four hours after the ligation, the stomach was removed under ether anaesthesia. The gastric content was collected and centrifuged, and the secretory volume, pH and acid content of the supernatant were measured. The acid content was measured by titrating to pH 7.0 with 0.02N NaOH using pH meter (Hitachi Horiba, M-5). The total acid content of the drug treated groups was compared with that of the control group, and thereby, the reduction percentage of acid content was calculated and then ED50, i.e. the dose required for 50% reduction of acid content, was determined by the usual graphic method. Drugs to be tested were suspended in 0.5% tragacanth solution and administered orally 30 minutes before the ligation. In the control group, a vehicle (0.5% tragacanth solution) was administered.

Another data set concerns pupil size. The data set is described as follows: Mydriatic action in rats. The class given is in vivo, male Wistar strain rats. To be noted: for Percent mydriasis: one hour after administration, 3 mm dilation = 100 percent. The source says: [IV] Mydriatic action in rats:
Male Wistar strain rats (weighing, 150-200 g) were used. Pupil size of the animals was twice measured microscopically just before and one hour after administration of drugs at a distance of 30 cm from the source of a constant light (30 W fluorescent light) according to the method of Pulewka [cf. Arch. exp. Path. U. Pharmakol., 168, 307 (1932)]. Based on the change between the first measured pupil size and the second measured pupil size, mydriasis percentage was calculated provided that mydriasis percentage is supposed to be 100 percent in case of 3 mm dilation of pupil size in diameter. Drugs to be tested were suspended in 0.5% tragacanth solution and administered. In the control group, a vehicle (0.5% tragacanth solution) was administered.

The subject of data set [6] is contraction of ileum preparation by acetylcholine. The data set is described as follows: Anti-acetylcholine action (isolated ileum contraction by acetylcholine). Also on record: species or system male Hartley guinea-pigs. To be noted: for IC50 (50% inhibition concentration), contraction of ileum by acetylcholine: acetylcholine chloride 2×10^-8 g/ml, drug added 2 minutes prior, 35° C.; for anti-acetylcholine activity (in words): isolated guinea-pig ileum. As for the experimental part:
[IV] Anti-acetylcholine action:
A piece of ileum, taken from male Hartley guinea-pigs (weighing 250-350 g) was suspended longitudinally in a bath containing Tyrode solution (20 ml) under constant bubbling of 95% oxygen and 5% carbon dioxide gas at 35° C. The contraction of the preparation by acetylcholine chloride (2×10^-8 g/ml) was recorded on an oscillograph (Nihonkoden, RJG-3004) via an isotonic transducer (Nihonkoden, TD-111S). Drugs to be tested (Compound A and Compound C) were added to the bath 2 minutes prior to the application of acetylcholine chloride. The average percent inhibition of the test Compound A against the contraction of ileum preparation by acetylcholine is shown in the accompanying FIG. 1. Based on the average percent inhibition on the graph, IC50, i.e. 50% inhibition concentration of the test compound, was calculated. […] IC50 of Compound C was calculated likewise. As a result, it was 1.9× 10^-6 g/ml.

The mark [7] stands for this setting: ulcer index = sum of length (mm) of lesions.
The mark [8] stands for this setting: 1 mg/kg p.o., ulcer index = sum of length (mm) of lesions.
The mark [9] stands for this setting: 2 mg/kg p.o., ulcer index = sum of length (mm) of lesions.
Setting [10] is: 5 mg/kg p.o., ulcer index = sum of length (mm) of lesions.

Take `CN1CCN(c2cc(-c3ccccc3)c3cc(Cl)ccc3n2)CC1` [6-chloro-2-(4-methyl-1-piperazinyl)-4-phenylquinoline]: the anti-reserpine activity result in data set [1] is recorded as “weak anti-reserpine activity”. In addition, the anti-inflammatory activity result in data set [2] is recorded as “have anti-inflammatory activity”. In data set [3], the diuretic activity entry is listed as “diuretic activity”.
Take `Clc1ccc2nc(N3CCN(c4ccccc4)CC3)cc(-c3ccccc3)c2c1` [6-chloro-2-(4-phenyl-1-piperazinyl)-4-phenylquinoline]: the anti-inflammatory activity entry in data set [2] is “have anti-inflammatory activity”. For the same compound, in data set [3], the diuretic activity entry is “diuretic activity”.
`CCCC[N+]1(C)[C@@H]2C[C@@H](OC(=O)[C@H](CO)c3ccccc3)C[C@H]1[C@@H]1O[C@@H]12` (stereo partly shown) [Butylscopolamine bromide, butylscopolamine bromide, reference compound]: the “Ulcer index Inhibitory %” value in data set [4] (20 mg/kg p.o., ulcer index = sum of area (mm^2) of lesions) is -2.1%; in data set [4] (50 mg/kg p.o., ulcer index = sum of area (mm^2) of lesions), 44.1%; in data set [4] (100 mg/kg p.o., ulcer index = sum of area (mm^2) of lesions) it was 97.8%; in data set [5] (50 mg/kg p.o.), 19.0%; in data set [5] (100 mg/kg p.o.) it was 28.6%; in data set [5] (200 mg/kg p.o.) it was 38.1%. Moreover, the ED50 – broadly, the dose at which the effect has come halfway, by size or by number of responders – in data set [4] (ulcer index = sum of area (mm^2) of lesions from photograph) is 49.1 mg/kg; in data set [5], greater than 200 mg/kg; in the data set with gastric secretion, 25 mg/kg. For the same compound, the “Total acid content Reduction %” value is on record as 44.3% in the data set on gastric secretion (20 mg/kg p.o.), 71.0% with gastric secretion (50 mg/kg p.o.) and 83.7% with gastric secretion (100 mg/kg p.o.).
Turning to `CN/C(=N/CCSCc1nc[nH]c1C)NC#N` [Cimetidine, reference compound], the “Ulcer index Inhibitory %” value in data set [4] (20 mg/kg p.o., ulcer index = sum of length (mm) of lesions) stood at 29.1%; in data set [4] (50 mg/kg p.o., ulcer index = sum of length (mm) of lesions), 75.0%; in data set [4] (100 mg/kg p.o., ulcer index = sum of length (mm) of lesions), 77.0%; in data set [5] (50 mg/kg p.o.), 0%; in data set [5] (100 mg/kg p.o.), 9.1%; in data set [5] (200 mg/kg p.o.) it was 42.4%. Besides, the “Ulcer index Inhibitory %” value in data set [5] (500 mg/kg p.o.) is recorded as 75.8%. Moreover, the ED50 is 26.9 mg/kg in data set [4] (setting [7]), 253 mg/kg in data set [5] and 26.8 mg/kg in the data set on gastric secretion. For the same compound, the entries for the “Total acid content Reduction %” value with gastric secretion (10 mg/kg p.o.), with gastric secretion (20 mg/kg p.o.) and with gastric secretion (50 mg/kg p.o.) were 9.4%, 44.0% and 71.6%, respectively.
As for `CCN1CCN(c2cc(-c3ccccc3)c3ccccc3n2)CC1` [Compound A, 2-(4-ethyl-1-piperazinyl)-4-phenylquinolinedihydrochloride], the “Ulcer index Inhibitory %” value is 15.5% in data set [4] (setting [8]); 40.8% in data set [4] (setting [9]); 85.2% in data set [4] (setting [10]); 88.4% in data set [4] (10 mg/kg p.o., ulcer index = sum of length (mm) of lesions); 35.3% in data set [5] (5 mg/kg p.o.); 41.2% in data set [5] (10 mg/kg p.o.). The “Ulcer index Inhibitory %” value in data set [5] (20 mg/kg p.o.) came to 52.9%; in data set [5] (50 mg/kg p.o.) it was 76.5%. Also, the values for the ED50 (in data set [4] (setting [7]); in data set [5]; in the data set with gastric secretion) were 2.8 mg/kg, 16 mg/kg and 1.8 mg/kg, respectively. For the same compound, the “Total acid content Reduction %” value in the data set on gastric secretion (0.5 mg/kg p.o.) is on record as 18.2%; with gastric secretion (1 mg/kg p.o.), 34.7%; in the data set on gastric secretion (2 mg/kg p.o.), 54.5%; in the data set with gastric secretion (5 mg/kg p.o.) it was 73.1%. The Percent mydriasis came to 4.0% in the data set on pupil size (5 mg/kg p.o.); 2.7% with pupil size (10 mg/kg p.o.); 2.7% in the data set on pupil size (20 mg/kg p.o.); 1.3% in the data set with pupil size (50 mg/kg p.o.); 2.6% in the data set on pupil size (100 mg/kg p.o.). The “mydriatic action (in words)” value in the data set with pupil size (rats, up to 100 mg/kg) was “did entirely not show any mydriatic action even in a dose of 100 mg/kg”. Further, the “IC50 (50% inhibition concentration), contraction of ileum by acetylcholine” value in data set [6] amounted to 1.2 µg/mL. In addition, the “anti-acetylcholine activity (in words)” value in data set [6] is reported as “extremely weak”.
For `O=C(O)/C=C\C(=O)O.c1ccc(-c2cc(N3CCNCC3)nc3ccccc23)cc1` [Compound C, 2-(1-piperazinyl)-4-phenylquinoline monomaleate], the “Ulcer index Inhibitory %” value came to 45.8% in data set [4] (0.2 mg/kg p.o., ulcer index = sum of length (mm) of lesions); 55.5% in data set [4] (0.5 mg/kg p.o., ulcer index = sum of length (mm) of lesions); 55.9% in data set [4] (setting [8]); 73.6% in data set [4] (setting [9]); 71.8% in data set [4] (setting [10]); 37.5% in data set [5] (5 mg/kg p.o.). Also, the “Ulcer index Inhibitory %” value stood at 43.8% in data set [5] (10 mg/kg p.o.), 56.3% in data set [5] (20 mg/kg p.o.) and 75.0% in data set [5] (50 mg/kg p.o.). Besides, the ED50 in data set [4] (setting [7]) was determined as 0.45 mg/kg; in data set [5] it was 14 mg/kg; in the data set with gastric secretion it was 1.1 mg/kg. In addition, the “Total acid content Reduction %” value in the data set on gastric secretion (1 mg/kg p.o.) is reported as 45.3%; in the data set with gastric secretion (2 mg/kg p.o.) it was 71.3%; with gastric secretion (5 mg/kg p.o.), 86.3%. Moreover, the “IC50 (50% inhibition concentration), contraction of ileum by acetylcholine” value in data set [6] was 1.9 µg/mL. Also, in data set [6], the “anti-acetylcholine activity (in words)” value is on record as “extremely weak”.
